For assay [1], the target named is T1, human TGR5 receptor (Homo sapiens, UniProt Q8TDU6).
T1 construct: host or cells: CHO-K1 (hTGR5-CHO)
T1 sequence (Q8TDU6 1-330): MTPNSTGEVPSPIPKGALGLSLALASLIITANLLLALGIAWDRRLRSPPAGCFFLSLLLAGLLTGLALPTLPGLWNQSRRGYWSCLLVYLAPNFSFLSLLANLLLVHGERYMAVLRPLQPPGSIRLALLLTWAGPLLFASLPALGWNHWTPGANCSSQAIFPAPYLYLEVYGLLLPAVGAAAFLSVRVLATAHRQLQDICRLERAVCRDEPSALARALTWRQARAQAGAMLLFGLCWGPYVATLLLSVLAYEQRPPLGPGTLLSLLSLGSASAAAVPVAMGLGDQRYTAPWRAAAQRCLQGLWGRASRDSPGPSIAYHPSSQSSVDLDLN
The assay is described as follows: Human TGR5 cAMP production assay (hTGR5-CHO cells, DiscoveRx cAMP XS+ kit). The class given is cell-based. The note with it: luminescent cAMP assay, read-out: Human TGR5 Lum. cAMP Activity (EC50). As for the experimental part: Human TGR5 cAMP Production Assay
Compounds of the present invention were evaluated for their ability to induce cAMP production using CHO-K1 cells overexpressing the human TGR5 receptor.
CHO-K1 cells stably expressing human TGR5 receptor (accession number NM_001077194.1) (hTGR5) (i.e., hTGR5-CHO cells) were purchased from DiscoveRx Corporation (Fremont, Calif.). hTGR5-CHO cells were grown in Ham's F-12 media supplemented with 10% Fetal Bovine Serum, 1% Penicillin-Streptomycin, 2 mM L-Alanine L-Glutamine (Glutamax), and 800 μg/mL Geneticin selection. The cAMP production assay was performed using DiscoveRx's cAMP XS+ kit (Catalog No. 90-0075XL) following the manufacturer's recommended protocol. Briefly, hTGR5-CHO cells were harvested using non-enzymatic cell dissociation buffer (Sigma-Aldrich, St. Louis, Mo.) and 1×10^6 cells were combined in Phosphate-Buffered Saline (PBS) to a final volume of 496 μL to which 4 μL of 125 mM IBMX (Sigma-Aldrich, St. Louis, Mo.) was added. 500 μL of cAMP antibody solution was added to the harvested cells and incubated at room temperature for 20 min.
Test compounds were serially diluted (half-log dilutions) in DMSO and then further diluted 1:50 in PBS, 10 mM HEPES buffer. 2 μL of serially diluted compound was added to a 384-well low volume plate (Greiner; cat #784075) and centrifuged briefly. 2 μl of the cell/cAMP antibody mixture was then added to each compound-containing well and allowed to incubate at room temperature for one hour. Following incubation, the XS+ kits' ED/Lysis/CL Substrate Working Solution was prepared following the manufacturer's recommended protocol and 4 μL was added to each well of the plate. The plate was then incubated for one hour at room temperature. Following incubation, 4 μL of Enzyme Acceptor reagent was added to the plate and allowed to incubate overnight at room temperature. Luminescent signal was then detected using the Viewlux instrument (Perkin-Elmer, Waltham, Mass.).
Human and Mouse TGR5 cAMP
(§1) In Table 52, EC50 values for both human and mouse cells were determined according to the TGR5 cAMP assays described above. […]
A general note: Cyclic AMP is a second messenger, typically raised through Gs and lowered through Gi signalling.

Assay [2] addresses T2, mouse TGR5 receptor (Mus musculus, UniProt Q80SS6).
T2 construct: host or cells: HEK293-EBNA (293 c18, ATCC CRL10852)
T2 sequence (Q80SS6 1-329): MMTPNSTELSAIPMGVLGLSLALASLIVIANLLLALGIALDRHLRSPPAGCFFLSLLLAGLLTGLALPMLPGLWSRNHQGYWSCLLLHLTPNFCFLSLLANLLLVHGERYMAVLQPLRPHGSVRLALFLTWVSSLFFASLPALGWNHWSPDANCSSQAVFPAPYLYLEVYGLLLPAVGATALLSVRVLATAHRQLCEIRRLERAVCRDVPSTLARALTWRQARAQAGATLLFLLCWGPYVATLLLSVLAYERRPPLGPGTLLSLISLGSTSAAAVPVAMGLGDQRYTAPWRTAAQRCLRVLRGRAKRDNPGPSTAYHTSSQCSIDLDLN
The assay is described as follows: Mouse TGR5 HTRF cAMP production assay (HEK293-EBNA cells, Cisbio cAMP HiRange kit). The note with it: HEK293-EBNA cells overexpressing mouse TGR5, HTRF cAMP assay. The class given is cell-based. As for the experimental part: Mouse TGR5 cAMP Production Assay
Compounds of the present invention were evaluated for their ability to induce cAMP production in HEK-EBNA cells overexpressing the mouse TGR5 receptor. Human embryonic kidney cells (HEK293-EBNA) stably expressing mouse TGR5 receptor were established using the following procedure. Specifically, a commercially obtained gene encoding mouse TGR5 (accession number BC116914) from Thermo Scientific (Waltham, Mass.) was cloned into an episomal expression vector. The resulting expression plasmid was then transfected into 293 c18 (ATCC® CRL10852™) cells, which express the Epstein-Barr virus nuclear antigen EBNA1 and can support the replication of episomal vectors. Selection for the plasmid was maintained with Hygromycin B. Cells were cultured and maintained in DMEM (Sigma; cat #6429) supplemented with 10% Fetal Bovine Serum, 1% penicillin/streptomycin, 2 mM L-alanine L-glutamine (GlutaMax), and 250 μg/mL Hygromycin.
We developed two cAMP production assays.
(ii) HTRF cAMP Production Assay
In this second cAMP production assay, the cAMP production was measured in 384-well low volume plates (Greiner; cat #784075) using the Cisbio™ cAMP HiRange HTRF Assay Kit (CisBio) according to the manufacturer's protocol.
Briefly, compounds were initially diluted in 100% DMSO (12-point serial dilution by half logs) in a 96-well plate and then were further diluted 1:50 in PBS containing 10 mM HEPES. 5 μL were transferred to the 384-well assay plate in duplicate. HEK293-EBNA cells stably overexpressing mouse TGR5 were harvested using non-enzymatic cell dissociation buffer (Sigma), spun down, then resuspended in serum-free DMEM with 500 μM IBMX at a density of 500,000 cells/mL. 5 μL of cell suspension was transferred to each well of the 384-well assay plate already containing compound. The plate was covered and incubated at room temperature for 1 hour. The d2-cAMP and anti-cAMP Ab-cryptate stock solutions were prepared as per kit instructions. Then 5 μL of each conjugate (d2 and cryptate) were added to each well of the assay plate. The plate was covered and incubated at room temperature for one (1) hour. The plate was read on an Envision™ plate reader (PerkinElmer).
as §1
For orientation: Time-resolved FRET reads energy transfer from a long-lived donor to a nearby acceptor.

From US10654834B2 (Venenum Biodesign, LLC, priority 2016, dated 2020) come the findings set out here.

On to `N#Cc1ccc(CCNC(=O)[C@@H]2CCCN(c3cc(N4CCN(CCOCCO)CC4)nc(C(F)(F)F)n3)C2)cc1` [Compound 314, (R)-N-(4-cyanophenethyl)-1-(6-(4-(2-(2-hydroxyethoxy)ethyl)piperazin-1-yl)-2-(trifluoromethyl)pyrimidin-4-yl)piperidine-3-carboxamide], for which the half-maximal effective concentration (EC50) (as a rule, the concentration needed to bring the measured effect to its halfway point) in assay [1] is 0.1 to 0.999 µM; in assay [2] it was below 0.1 µM.

Consider `N#Cc1ccc(CCNC(=O)[C@@H]2CCCN2c2cc(-c3csc(CO)c3)nc(C(F)(F)F)n2)cc1` [Compound 182, (S)—N-(4-cyanophenethyl)-1-(6-(5-(hydroxymethyl)thiophen-3-yl)-2-(trifluoromethyl)pyrimidin-4-yl)pyrrolidine-2-carboxamide], for which the concentration giving a half-maximal response (EC50) was 0.1 to 0.999 µM in assay [1] and below 0.1 µM in assay [2].

For the compound `N#Cc1ccc(CCNC(=O)[C@@H]2CCN2c2cc(N3CCN(CCO)CC3)nc(C(F)(F)F)n2)cc1` [Compound 224, (S)-N-(4-cyanophenethyl)-1-(6-(4-(2-hydroxyethyl)piperazin-1-yl)-2-(trifluoromethyl)pyrimidin-4-yl)azetidine-2-carboxamide], the EC50 in assay [1] was 0.1 to 0.999 µM; in assay [2], below 0.1 µM.

On to `CN(C)CC(=O)N1CCN(c2cc(N3CCC[C@@H](C(=O)NCCc4ccc(C(F)(F)F)cc4)C3)nc(C(F)(F)F)n2)CC1` [Compound 338, (R)-1-(6-(4-(2-(dimethylamino)-acetyl)piperazin-1-yl)-2-(trifluoromethyl)-pyrimidin-4-yl)-N-(4-(trifluoromethyl)phenethyl)-piperidine-3-carboxamide], for which the EC50 in assay [1] and in assay [2] was 0.1 to 0.999 µM throughout.

Consider `CN(C(=O)NCCC(=O)O)c1ccc(-c2cc(N3CCC[C@H]3C(=O)NCCc3ccc(C#N)cc3)nc(C(F)(F)F)n2)cc1` [Compound 196, (S)-3-(3-(4-(6-(2-((4-cyanophenethyl)carbamoyl)pyrrolidin-1-yl)-2-(trifluoromethyl)pyrimidin-4-yl)phenyl)-3-methylureido)propanoic acid], for which the figures for the EC50 in assay [1] and in assay [2] were 1 to 30 µM and 0.1 to 0.999 µM, respectively.

With `COCCC1CCN(c2cc(N3CCC[C@H]3C(=O)NCCc3ccc(C#N)cc3)nc(C(F)(F)F)n2)CC1` [Compound 25], the EC50 in assay [1] and in assay [2] was below 0.1 µM throughout.

Take `COC(=O)c1ccc(S(=O)(=O)NCCOCCNC(=O)CCCC2CCN(c3cc(N4CC[C@H]4C(=O)NCCc4ccc(C#N)cc4)nc(C(F)(F)F)n3)CC2)cc1` [Compound 290, (S)-methyl 4-(N-(2-(2-(4-(1-(6-(2-((4-cyanophenethyl)carbamoyl)azetidin-1-yl)-2-(trifluoromethyl)pyrimidin-4-yl)piperidin-4-yl)butanamido)ethoxy)ethyl)-sulfamoyl)benzoate]: the half-maximal effective concentration (EC50) in assay [1] was 0.1 to 0.999 µM; in assay [2], below 0.1 µM.

On to `N#Cc1ccc(CCNC(=O)[C@@H]2CCCN2c2cc(-c3ccc(CCC(=O)N[C@@H](CCCNC(=N)N)C(=O)O)cc3)cc(C(F)(F)F)n2)cc1` [Compound 207, (S)-2-(3-(4-(2-((S)-2-((4-cyanophenethyl)carbamoyl)pyrrolidin-1-yl)-6-(trifluoromethyl)pyridin-4-yl)phenyl)propanamido)-5-guanidino-pentanoic acid], for which the half-maximal effective concentration (EC50) was 0.1 to 0.999 µM in assay [1] and below 0.1 µM in assay [2].

Consider `CCOC(=O)CCN/C(=N\C#N)NCCC1CCN(c2cc(N3CC[C@H]3C(=O)NCCc3ccc(C#N)cc3)nc(C(F)(F)F)n2)CC1` [Compound 350, (S,Z)-ethyl 3-(2-cyano-3-(2-(1-(6-(2-((4-cyanophenethyl)carbamoyl)azetidin-1-yl)-2-(trifluoromethyl)pyrimidin-4-yl)piperidin-4-yl)ethyl)guanidino)propanoate], for which the EC50 in assay [1] and in assay [2] was below 0.1 µM in each case.

For `N#CCCC1CCN(c2cc(N3CCC[C@H]3C(=O)NCCc3ccc(C(F)(F)F)cc3)nc(C(F)(F)F)n2)CC1` [Compound 11], the EC50 in assay [1] and in assay [2] was below 0.1 µM each time.

As for `O=C(O)C(=O)N1CCN(c2cc(N3CCC[C@@H](C(=O)NCCc4ccc(C(F)(F)F)cc4)C3)nc(C(F)(F)F)n2)CC1` [Compound 340, (R)-2-oxo-2-(4-(2-(trifluoromethyl)-6-(3-((4-(trifluoromethyl)phenethyl)-carbamoyl)piperidin-1-yl)pyrimidin-4-yl)piperazin-1-yl)acetic acid], the figures for the EC50 in assay [1] and in assay [2] were 0.1 to 0.999 µM and below 0.1 µM, respectively.

As for `CCOC(=O)CCNC(=O)N1CCN(c2cc(N3CCC[C@@H](C(=O)NCCc4ccc(C(F)(F)F)cc4)C3)nc(C(F)(F)F)n2)CC1` [Compound 343, (R)-ethyl 3-(4-(2-(trifluoromethyl)-6-(3-((4-(trifluoromethyl)phenethyl)carbamoyl)-piperidin-1-yl)pyrimidin-4-yl)piperazine-1-carboxamido)propanoate], the EC50 was 0.1 to 0.999 µM in assay [1] and below 0.1 µM in assay [2].

Consider `CC(=O)NCCOCCNC(=O)NCCC1CCN(c2cc(N3CC[C@H]3C(=O)NCCc3ccc(C#N)cc3)nc(C(F)(F)F)n2)CC1` [Compound 359, (S)-N-(4-cyanophenethyl)-1-(6-(4-(4,12-dioxo-8-oxa-3,5,11-triazatridecyl)piperidin-1-yl)-2-(trifluoromethyl)pyrimidin-4-yl)azetidine-2-carboxamide], for which the EC50 in assay [1] and in assay [2] was below 0.1 µM each time.

As to `N#Cc1ccc(CCNC(=O)[C@@H]2CCCN2c2cc(N3CCC(CCCC(=O)NCCNC(=O)c4cc(NC[C@H](O)[C@@H](O)[C@H](O)[C@H](O)CO)ncn4)CC3)nc(C(F)(F)F)n2)cc1` [Compound 100, N-(2-(4-(1-(6-((S)-2-((4-cyanophenethyl)carbamoyl)pyrrolidin-1-yl)-2-(trifluoromethyl)pyrimidin-4-yl)piperidin-4-yl)butanamido)ethyl)-6-(((2S,3R,4R,5R)-2,3,4,5,6-pentahydroxyhexyl)amino)-pyrimidine-4-carboxamide], the EC50 in assay [1] is 0.1 to 0.999 µM; in assay [2], below 0.1 µM.
